Legend:
E. coli (gram -) [1] = assay: inhibition of the reduction of RIND XXXV (Examples 8 and 9), E. coli; type: cell-based, Escherichia coli (ATCC 25922); details: 50 μl of 10 mg/ml antibiotic premixed with 1 ml cells (septamycin with calcium chloride), 30 minutes, 37° C., average of two replicates
Procedure: (§1) gram-negative bacteria Enterobacter cloacae (ATCC 23355), Escherichia coli (ATCC 25922), Proteus vulgaris (ATCC 13315), Klebsiella pneumoniae (ATCC 13883) and Pseudomonas aeruginosa (ATCC 27853), and gram-positive bacteria Staphylococcus aureus (ATCC 25923) and Streptococcus pyogenes (ATCC 19615), and brain heart infusion (BHI) broth from Difco Laboratories (Detroit, Mich.),
(§2) Bacterial suspensions were prepared by growing the cells in BHI to stationary phase overnight at 37° C. P. aeruginosa was grown with agitation. […]
(§3) Optical density readings (OD) were made at 635 nm at 0 minutes and after incubation at 37° C. for 30 minutes for all solutions, and the change (ΔOD) was determined. Table V below lists the results expressed as corrected percent inhibition of the reduction of RIND VII. The corrected percent inhibition was calculated by dividing the difference between ΔOD obtained from a Control test without antibiotic and the ΔOD of the test, by the ΔOD of the Control without antibiotic. All readings were corrected by subtracting readings of the appropriate background control. […]
(§4) Relative fluorescence was measured at an emission of 620 nm after excitation at 540 nm using a […] microfluor Reader, and the change in fluorescence (Δ relative fluorescence) after 30 minutes at 37° C. was determined as the average of two replicates.

[2] = test system: viable gram-positive and gram-negative bacteria; assay: differentiation of viable gram-positive and gram-negative bacteria (outcome in words); type: cell-based; details: for differentiation of gram-positive and gram-negative bacteria: RIND XXXV, Examples 8 and 9; for differentiating gram-positive and gram-negative bacteria: RIND VII, Examples 2-3
Procedure: as §1
(§5) Bacterial suspensions were prepared by growing the cells in BHI to stationary phase overnight at 37° C. P. aeruginosa was grown with agitation. About 40 ml of overnight cultures were centrifuged, decanted and washed once with 0.05 molar potassium phosphate buffer or 0.05 molar N-2-hydroxyethylpiperazine-N'-2-ethanesulfonic acid (HEPES) buffer, pH 7.8, and resuspended in buffer.
TERGITOL 7 anionic surfactant was used to differentiate viable bacteria according to the prior art method. Various concentrations of TERGITOL 7 surfactant were mixed with a 10% glucose solution (50 μl), 3-(4,5-dimethyl-2-thiazolyl)-2,5-diphenyl-2N-tetrazolium bromide (MTT) in methanol (25 μl at 5 mg/ml) or a RIND VII dispersion (1.5 ml) and phenazine methosulfate ETA (25 μl at 3 mg/ml methanol). The volume of each test solution was brought to 3 ml with potassium phosphate buffer. A cell suspension (100 μl at about 10^8 cells/ml) was then added. The solutions were incubated at 37° C. for 15 and 30 minutes in the presence of either E. coli, a gram (-) bacterium, or S. aureus, a gram (+) bacterium. The amount of dye formed was then determined visually and graded as follows: 0 indicates no dye formation, +/- indicates faint dye formation, 1+ indicates light dye formation, 2+ indicates moderate dye formation, 3+ indicates strong dye formation, and 4+ indicates very strong dye formation.
Calimycin, a polyether antibiotic, was similarly used with RIND VII in the differentiation of bacteria. Assays were performed as described above, except that 25 μl of 1 molar calcium chloride solution was added to each test solution and the P. aeruginosa response was measured in the presence of 10% yeast extract as the carbon source instead of glucose. The final concentration of calimycin in each test was 10^-3 molar.
(§6) The test solutions were prepared by adding the following, in order: 1.2 ml HEPES, 50 μl glucose solution, 1.5 ml RIND VII dispersion, 100 μl antibiotic solution, 100 μl cell suspension and 25 μl ETA solution. Cell control solutions contained all reagents except antibiotics. Background Controls consisted of both buffer and solution controls. The buffer control contained all reagents except antibiotics and cells. The solution control contained all reagents except cells.
(§7) Optical density readings (OD) were made at 635 nm at 0 minutes and after incubation at 37° C. for 30 minutes for all solutions, and the change (ΔOD) was determined. Table V below lists the results expressed as corrected percent inhibition of the reduction of RIND VII. The corrected percent inhibition was calculated by dividing the difference between ΔOD obtained from a Control test without antibiotic and the ΔOD of the test, by the ΔOD of the Control without antibiotic. All readings were corrected by subtracting readings of the appropriate background control.
Relative fluorescence was measured using a standard spectrophotometer modified to read at excitation of 540 nm and emission of 620 nm. The change (Δ) in relative fluorescence was determined after 30 minutes at 37° C. for several concentration levels of antibiotic.
Optical density measurements were obtained at 540 nm using a standard spectrophotometer and the change in optical density (ΔOD) was determined after 30 minutes at 37° C. The resulting data are shown in Table VII below for several concentrations of antibiotic. It is clear from the data that the composition of this example was useful for differentiating bacteria. […]

S. aureus (gram +) [3] = assay: inhibition of the reduction of RIND XXXV (Examples 8 and 9), S. aureus; type: cell-based, Staphylococcus aureus (ATCC 25923); details: 50 μl of 10 mg/ml antibiotic premixed with 1 ml cells (septamycin with calcium chloride), 30 minutes, 37° C., average of two replicates
Procedure: as §1, §2, §3, §4

S. aureus (gram +) [4] = assay: inhibition of the reduction of RIND VII (solution assay, Examples 2-3), S. aureus; type: cell-based, Staphylococcus aureus (ATCC 25923); details: 635 nm, 30 minutes, 37° C.
Procedure: as §1, §5
(§8) A dispersion containing a RIND compound was prepared by dissolving RIND VII from Table II above in N,N-dimethylformamide (DMF) at 16 mg compound per ml of solvent. An aliquot (250 μl) of the resulting solution was added to 500 μl of TRITON X-100 surfactant. This mixture was then added dropwise with stirring to 25 ml of 0.05 molar HEPES buffer. A solution containing a water-compatible RIND compound XXXV was prepared by dissolving the compound (16 mg/ml) in N,N-dimethylformamide which had been acidified with a 0.1% sulfuric acid solution.
(§9) The following materials were used in these examples: stock dispersion of RIND VII as described above, glucose (10% in water), trimethyl-1,4-benzoquinone ETA (1.5 mg/ml methanol), each antibiotic at 1, 5, and 10 mg/ml methanol. Microbial cells were grown as described above. The final approximate cell concentrations were: 1.4×10^7 cells/ml for E. coli and 2.4×10^7 cells/ml for S. aureus.
as §6, §7

E. coli (gram -) [5] = assay: inhibition of the reduction of RIND VII (solution assay, Examples 2-3), E. coli; type: cell-based, Escherichia coli (ATCC 25922); details: 635 nm, 30 minutes, 37° C.
Procedure: as §1, §5, §8, §9, §6, §7

[6] = E1/2 (reduction potential) of the quinone nucleus of RIND compounds; type: physicochemical; details: quinone nucleus with hydrogen in place of the side chain
Text: Examples of such nuclei are presented below. […] Preferably, the E1/2 is from about +100 mV to about +400 mV as measured in water, or from about -650 to about -300 mV as measured in acetonitrile. […] Further details of measuring the E1/2 are described below prior to Table I. The desired E1/2 is achieved by appropriate electron withdrawing groups on the CAR--nucleus, or by a strained fused ring attached to the nucleus or a combination of both.
A standard calomel electrode was used as a standard. Some E1/2 values (denoted by *) were measured in acetonitrile using a saturated calomel electrode as a standard. E1/2 values not available are denoted by "NA".

[7] = aqueous emulsion, DMF, TRITON X-100, sodium phosphate buffer pH 7, calomel electrode
[8] = (*) in acetonitrile, saturated calomel electrode

SMILES: COC1CCC(OC2C(C)C(O)(C(C)C(=O)O)OC(CC3CC(OC)C(C)C4(O3)OC(C)(C3CCC(C5CCC(C6OC(C)(O)C(C)C(OC)C6C)O5)O3)C(OC)C4C)C2(C)OC)OC1C (stereo not drawn) [Antibiotic A204]
- Corrected Percent Inhibition (E. coli (gram -) [1]): 3.6%
- differentiation of gram-positive and gram-negative bacteria [2]: useful for differentiation of gram-positive and gram-negative bacteria
- Corrected Percent Inhibition (S. aureus (gram +) [3]): 35.8%

SMILES: CC[C@@H](C(=O)[C@@H](C)[C@@H](O)[C@H](C)CCc1ccc(C)c(O)c1C(=O)O)[C@H]1O[C@](CC)([C@H]2CC[C@](O)(CC)[C@H](C)O2)C[C@@H]1C [Lasalocid, lasalocid]
- differentiating gram-positive and gram-negative bacteria [2]: effective in differentiating gram-positive and gram-negative bacteria
- Corrected Percent Inhibition (S. aureus (gram +) [4]; antibiotic 0.033 mg/ml): 35.2%
- Corrected Percent Inhibition (S. aureus (gram +) [4]; antibiotic 0.166 mg/ml): 50.9%
- Corrected Percent Inhibition (S. aureus (gram +) [4]; antibiotic 0.333 mg/ml): 60.1%
- Corrected Percent Inhibition (E. coli (gram -) [5]; antibiotic 0.033 mg/ml): 6.6%
- Corrected Percent Inhibition (E. coli (gram -) [5]; antibiotic 0.166 mg/ml): 10.5%
- Corrected Percent Inhibition (E. coli (gram -) [5]; antibiotic 0.333 mg/ml): 25.5%

SMILES: CC[C@@]1([C@@H]2O[C@@H]([C@H]3O[C@@](O)(CO)[C@H](C)C[C@@H]3C)C[C@@H]2C)CC[C@H]([C@]2(C)CC[C@]3(C[C@H](O)[C@@H](C)[C@@H]([C@@H](C)[C@@H](OC)[C@H](C)C(=O)O)O3)O2)O1 [Monensin, monensin A]
- differentiating gram-positive and gram-negative bacteria [2]: effective in differentiating gram-positive and gram-negative bacteria
- Corrected Percent Inhibition (S. aureus (gram +) [4]; antibiotic 0.033 mg/ml): 34.4%
- Corrected Percent Inhibition (S. aureus (gram +) [4]; antibiotic 0.166 mg/ml): 43.0%
- Corrected Percent Inhibition (S. aureus (gram +) [4]; antibiotic 0.333 mg/ml): 42.0%
- Corrected Percent Inhibition (E. coli (gram -) [5]; antibiotic 0.033 mg/ml): 5.1%
- Corrected Percent Inhibition (E. coli (gram -) [5]; antibiotic 0.166 mg/ml): No inhibition
- Corrected Percent Inhibition (E. coli (gram -) [5]; antibiotic 0.333 mg/ml): No inhibition

SMILES: CC(C1=C(CN(C)C(=O)Oc2ccc(N=Nc3ccc([N+](=O)[O-])cc3S(C)(=O)=O)c3c(NS(=O)(=O)c4cccc(S(N)(=O)=O)c4)cccc23)C(=O)C(C(C)c2ccc([N+](=O)[O-])cc2)=C(CN(C)C(=O)Oc2ccc(N=Nc3ccc([N+](=O)[O-])cc3S(C)(=O)=O)c3c(NS(=O)(=O)c4cccc(S(N)(=O)=O)c4)cccc23)C1=O)c1ccc([N+](=O)[O-])cc1 (stereo not drawn) [RIND II]
- E1/2 [6, 7]: +236 mV

SMILES: CN(CC1=C(c2ccccc2)C(=O)C(CN(C)C(=O)Oc2ccc(N=Nc3ccc([N+](=O)[O-])cc3S(C)(=O)=O)c3c(NS(=O)(=O)c4cccc(S(N)(=O)=O)c4)cccc23)=C(c2ccccc2)C1=O)C(=O)Oc1ccc(N=Nc2ccc([N+](=O)[O-])cc2S(C)(=O)=O)c2c(NS(=O)(=O)c3cccc(S(N)(=O)=O)c3)cccc12 [RIND IV]
- E1/2 [6, 8]: -460 mV

SMILES: CCCCCCCCCCNS(=O)(=O)c1ccc(C(C)C2=C(CN(C)C(=O)Oc3ccc(N=Nc4ccc([N+](=O)[O-])cc4S(C)(=O)=O)c4c(NS(=O)(=O)c5cccc(S(N)(=O)=O)c5)cccc34)C(=O)C(C(C)c3ccc(S(=O)(=O)NCCCCCCCCCC)cc3)=C(CN(C)C(=O)Oc3ccc(N=Nc4ccc([N+](=O)[O-])cc4S(C)(=O)=O)c4c(NS(=O)(=O)c5cccc(S(N)(=O)=O)c5)cccc34)C2=O)cc1 (stereo not drawn) [RIND I]
- E1/2 [6, 8]: -528 mV

SMILES: CN(CC1=C(c2ccc(C#N)cc2)C(=O)C2=C(C1=O)C1C=CC2CC1)C(=O)Oc1ccc(N=Nc2ccc([N+](=O)[O-])cc2S(C)(=O)=O)c2c(NS(=O)(=O)c3cccc(S(N)(=O)=O)c3)cccc12 (stereo not drawn) [RIND XVII]
- E1/2 [6, 7]: +240 mV

SMILES: CCCCCCCCCCNS(=O)(=O)c1ccc(C(C)C2=C(CN(C)C(=O)Oc3ccc4c(C)cc(=O)oc4c3)C(=O)C(C(C)c3ccc(S(=O)(=O)NCCCCCCCCCC)cc3)=C(CN(C)C(=O)Oc3ccc4c(C)cc(=O)oc4c3)C2=O)cc1 (stereo not drawn) [RIND XXII]
- E1/2 [6, 8]: -528 mV

SMILES: CCCCCCCCCCNS(=O)(=O)c1ccc(C(C)C2=C(CN(C)C(=O)Oc3ccc(N=Nc4cccc(S(N)(=O)=O)c4)c4c(NS(C)(=O)=O)cccc34)C(=O)C(C(C)c3ccc(S(=O)(=O)NCCCCCCCCCC)cc3)=C(CN(C)C(=O)Oc3ccc(N=Nc4cccc(S(N)(=O)=O)c4)c4c(NS(C)(=O)=O)cccc34)C2=O)cc1 (stereo not drawn) [RIND XXI]
- E1/2 [6, 8]: -528 mV

SMILES: CC1=C(C)C(=O)C(c2ccccc2)=C(CN(C)C(=O)Oc2ccc(N=Nc3ccc([N+](=O)[O-])cc3S(C)(=O)=O)c3c(NS(=O)(=O)c4cccc(S(N)(=O)=O)c4)cccc23)C1=O [RIND XXXVI]
- E1/2 [6, 7]: +144 mV

SMILES: CO[C@H]1C[C@@H](C[C@H]2O[C@@](O)([C@H](C)C(=O)O)[C@H](C)[C@H](OC)[C@@]2(C)O[C@H]2CC[C@@H](OC)[C@H](C)O2)O[C@]2(O[C@@](C)([C@@H]3CC[C@H]([C@H]4CC[C@H]([C@H]5O[C@](C)(O)[C@H](C)C[C@@H]5C)O4)O3)[C@H](OC)[C@H]2C)[C@@H]1C [Septamycin, septamycin]
- Corrected Percent Inhibition (E. coli (gram -) [1]): 52.3%
- differentiation of gram-positive and gram-negative bacteria [2]: useful for differentiation of gram-positive and gram-negative bacteria
- Corrected Percent Inhibition (S. aureus (gram +) [3]): 74.9%

Source: patent publication US4885239A, “Rapid differentiation of bacteria using polyether antibiotics” (Eastman Kodak Company, priority 1986, dated 1989)
